Data published in patent publication US8053453B2, “Pyrazolone compounds and thrombopoietin receptor activator” (Nissan Chemical Industries, Ltd., priority 2002, dated 2011).
Read-outs that look alike come from different tables or passages of the source.

Target: T1, human TPO receptor (Homo sapiens, UniProt P40238)
T1 construct: expressed in transfected cells
T1 sequence (P40238 26-635): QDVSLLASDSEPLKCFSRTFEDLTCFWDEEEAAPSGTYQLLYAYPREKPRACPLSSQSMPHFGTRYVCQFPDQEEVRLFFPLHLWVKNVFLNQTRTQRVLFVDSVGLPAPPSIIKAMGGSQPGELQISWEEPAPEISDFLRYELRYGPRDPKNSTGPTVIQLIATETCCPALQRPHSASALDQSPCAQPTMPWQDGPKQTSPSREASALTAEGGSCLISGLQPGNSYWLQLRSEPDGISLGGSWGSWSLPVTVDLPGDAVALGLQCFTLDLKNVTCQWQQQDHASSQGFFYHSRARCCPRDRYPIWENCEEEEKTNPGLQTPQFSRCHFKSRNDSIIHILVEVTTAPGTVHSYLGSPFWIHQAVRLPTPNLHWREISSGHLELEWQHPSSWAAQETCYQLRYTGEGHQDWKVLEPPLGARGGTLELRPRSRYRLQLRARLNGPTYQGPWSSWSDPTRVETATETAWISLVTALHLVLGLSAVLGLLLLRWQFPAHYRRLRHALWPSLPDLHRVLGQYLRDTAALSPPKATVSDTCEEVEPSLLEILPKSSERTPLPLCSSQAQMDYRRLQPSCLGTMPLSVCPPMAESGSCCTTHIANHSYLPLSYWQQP
Assay: Proliferation of TPO-dependent cell line UT7/EPO-mpl, MTT method (Assay Examples 1, 3, 4)
Type: cell-based
Settings: UT7/EPO-mpl cells; for EC50: concentration giving 50% of the maximum cell growth observed with the same compound; for Efficacy (%) (maximal growth rate) / Emax: value in the presence of 10 ng/ml TPO taken as 100% standard, method of Assay Example 1; for Emax: read-out: Efficacy (%) (maximal growth rate)
Experimental: The reactivity of Synthetic Example 56, the compound of the present invention, with thrombopoietin (TPO) receptor was assayed using a human leukemic cell line, UT7/EPO-mpl.
UT7/EPO-mpl is a stable transformed cell line obtained by introducing into human leukemic cell line UT7/EPO a vector that induces expression of human TPO receptor (c-mp1) under control of a cytomegaloviral promoter by the method of Takatoku et al. (J. Biol. Chem., 272:7259-7263 (1997)). […] These two cell lines were subcultured in Iscove's modified Dulbecco's medium (IMDM; GIBCO) containing 10% fetal bovine serum (FBS; TRACE SCIENTIFIC) using a CO2 incubator (5% CO2, 37° C.).
The subcultured cells described above were washed twice with phosphate buffered saline (PBS) and suspended in IMDM containing 10% FBS at a cell density of 6×10^4 cells/ml. The cell suspension was transferred to a 96-well tissue culture plate (CORNING) in 100-μl aliquots. Then either TPO (PeproTech EC) or Synthetic Example 56 dissolved in dimethylsulfoxide (DMSO) was diluted 83-fold with IMDM containing 10% FBS and added to the aforementioned cell suspension in 20-μl aliquots. The suspension was incubated in a CO2 incubator (5% CO2, 37° C.) for 4 days. Cell proliferation was assayed according to the method of Mosmann et al. (J. Immunol. Methods, 65:55-63 (1983)). A 10-μl aliquot of 5 mg/ml MTT reagent (SIGMA) was added to each well of the tissue culture plate and the plate was incubated at 37° C. for 4 h. The formazan pigment generated was dissolved by adding 150 μl per well of 0.1 M HCl/isopropanol solution and the absorbance of the resulting pigment solution was measured at 550 nm with a 96-well microplate reader (BIO-RAD, M450).
The following Synthetic Examples were tested according to the method of Assay Example 1 to determine the maximal growth rate (efficacy), expressed by taking the value with human leukemic cell line UT7/EPO-mpl observed in the presence of 10 ng/ml TPO as 100% standard, and the concentration of each compound that yields a growth rate corresponding to 50% of the maximum cell growth observed with the same compound (EC50).
Synthetic Example 56, the compound of the present invention, and four compounds (Reference Synthetic Examples 1 to 4) described in a publication of international patent application (Publication No. WO01/34585, applied by SmithKline Beecham Corp.) were tested according to the method of Assay Example 1.

[1] = read-out: EC50 (ng/ml) (converted)

| SMILES | EC50 [µg/mL] | Efficacy (%) (maximal growth rate) | EC50 [1] [nM] | Emax [%] |
| --- | --- | --- | --- | --- |
| CC1=NN(c2ccc(C(F)(F)F)cc2)C(=O)C1=C(C)NNC(=O)c1ccc(O)cc1O [compound 33] | 0.0011 | 96 |  |  |
| CC1=NN(c2ccc(C(F)(F)F)cc2)C(=O)C1=C(C)NNC(=O)c1ccccc1[N+](=O)[O-] [compound 35] | 0.034 | 99 |  |  |
| CC1=NN(c2ccc(C(F)(F)F)cc2)C(=O)C1=C(C)NNC(=O)c1cccc([N+](=O)[O-])c1 [compound 36] | 0.059 | 97 |  |  |
| CC1=NN(c2ccc(I)cc2)C(=O)C1=C(C)NNC(=O)c1ccccc1O [compound 38] | 0.036 | 93 |  |  |
| CC1=NN(c2cccc(C(F)(F)F)c2)C(=O)C1=C(C)NNC(=O)c1ccccc1O [compound 45] | 0.03 | 74 |  |  |
| CC1=NN(c2cccc(C(F)(F)F)c2)C(=O)C1=C(C)NNC(=O)c1ccc(O)c(O)c1 [compound 49] | 0.0091 | 62 |  |  |
| CC1=NN(c2cccc(C(F)(F)F)c2)C(=O)C1=C(C)NNC(=O)c1ccccc1[N+](=O)[O-] [compound 50] | 0.037 | 89 |  |  |
| CC1=NN(c2cccc(C(F)(F)F)c2)C(=O)C1=C(C)NNC(=O)c1cccc([N+](=O)[O-])c1 [compound 51] | 0.033 | 73 |  |  |
| CC1=NN(c2cccc(C(F)(F)F)c2)C(=O)C1=C(C)NNC(=O)c1ccc([N+](=O)[O-])cc1 [compound 52] |  |  | 268 | 22 |
| CC1=NN(c2ccc(C)c(C)c2)C(=O)C1=C(C)NNC(=O)c1ccccc1O [compound 53] |  |  | 31.7 | 120 |
| CC1=NN(c2ccc(C)c(C)c2)C(=O)C1=C(C)NNC(=O)c1ccccc1[N+](=O)[O-] [compound 58] | 0.032 | 110 |  |  |
| CC1=NN(c2ccc(Cl)c(Cl)c2)C(=O)C1=C(C)NNC(=O)c1ccc(O)cc1 [compound 62] | 0.0064 | 57 |  |  |
| CC1=NN(c2ccc(Cl)c(Cl)c2)C(=O)C1=C(C)NNC(=O)c1ccc(O)cc1O [compound 64] | 0.0077 | 74 |  |  |
| CC1=NN(c2ccc(Cl)c(Cl)c2)C(=O)C1=C(C)NNC(=O)c1ccc(O)c(O)c1 [compound 65] | 0.0089 | 70 |  |  |
| CC1=NN(c2ccc(Cl)c(Cl)c2)C(=O)C1=C(C)NNC(=O)c1cccc([N+](=O)[O-])c1 [compound 67] | 0.033 | 80 |  |  |
| CC1=NN(c2ccc(Cl)c(Cl)c2)C(=O)C1=C(C)NNC(=O)c1ccc([N+](=O)[O-])cc1 [compound 68] | 0.21 | 26 |  |  |
| CC1=NN(c2ccc(C(C)(C)C)cc2)C(=O)C1=C(C)NNC(=O)c1ccc(N)cc1 [compound 69] | 0.0057 | 89 |  |  |
| CC1=NN(c2ccc(C(C)(C)C)cc2)C(=O)C1=C(C)NNC(=O)c1ccc(C(F)(F)F)cc1 [compound 71] | 0.069 | 89 |  |  |
| CC1=NN(c2ccc(C(C)(C)C)cc2)C(=O)C1=C(C)NNC(=O)c1ccc(C(C)(C)C)cc1 [compound 72] | 0.075 | 88 |  |  |
| CC1=NN(c2ccc(C)c(C)c2)C(=O)C1=C(C)NNC(=O)c1ccc(N)cc1 [compound 73] | 0.01 | 84 |  |  |

Further lines, results first:

| EC50 [µg/mL] | Efficacy (%) (maximal growth rate) | EC50 [1] [nM] | Emax [%] | SMILES |
| --- | --- | --- | --- | --- |
| 0.0052 | 99 |  |  | CC1=NN(c2ccc(C(F)(F)F)cc2)C(=O)C1=C(C)NNC(=O)c1ccc(O)c(O)c1 [compound 34] |
| 0.14 | 63 |  |  | CC1=NN(c2ccc(C(F)(F)F)cc2)C(=O)C1=C(C)NNC(=O)c1ccc([N+](=O)[O-])cc1 [compound 37] |
| 0.028 | 97 |  |  | CC1=NN(c2ccc(I)cc2)C(=O)C1=C(C)NNC(=O)c1ccc(O)cc1 [compound 39] |
| 0.25 | 37 |  |  | CC1=NN(c2ccc(I)cc2)C(=O)C1=C(C)NNC(=O)c1cc2ccccc2cc1O [compound 40] |
| 0.032 | 115 |  |  | CC1=NN(c2ccc(I)cc2)C(=O)C1=C(C)NNC(=O)c1ccc(O)c(O)c1 [compound 41] |
| 0.25 | 71 |  |  | CC1=NN(c2ccc(I)cc2)C(=O)C1=C(C)NNC(=O)c1ccccc1[N+](=O)[O-] [compound 42] |
| 0.083 | 87 |  |  | CC1=NN(c2ccc(I)cc2)C(=O)C1=C(C)NNC(=O)c1cccc([N+](=O)[O-])c1 [compound 43] |
| 0.25 | 26 |  |  | CC1=NN(c2ccc(I)cc2)C(=O)C1=C(C)NNC(=O)c1ccc([N+](=O)[O-])cc1 [compound 44] |
| 0.015 | 82 |  |  | CC1=NN(c2cccc(C(F)(F)F)c2)C(=O)C1=C(C)NNC(=O)c1ccc(O)cc1 [compound 46] |
| 0.19 | 48 |  |  | CC1=NN(c2cccc(C(F)(F)F)c2)C(=O)C1=C(C)NNC(=O)c1cc2ccccc2cc1O [compound 47] |
| 0.008 | 62 |  |  | CC1=NN(c2cccc(C(F)(F)F)c2)C(=O)C1=C(C)NNC(=O)c1ccc(O)cc1O [compound 48] |
| 0.0075 | 61 |  |  | CC1=NN(c2ccc(C)c(C)c2)C(=O)C1=C(C)NNC(=O)c1ccc(O)cc1 [compound 54] |
| 0.22 | 53 |  |  | CC1=NN(c2ccc(C)c(C)c2)C(=O)C1=C(C)NNC(=O)c1cc2ccccc2cc1O [compound 55] |
| 0.0011 | 96 |  |  | CC1=NN(c2ccc(C)c(C)c2)C(=O)C1=C(C)NNC(=O)c1ccc(O)cc1O [compound 56] |
| 0.0059 | 97 |  |  | CC1=NN(c2ccc(C)c(C)c2)C(=O)C1=C(C)NNC(=O)c1ccc(O)c(O)c1 [compound 57] |
|  |  | 58.9 | 82 | CC1=NN(c2ccc(C)c(C)c2)C(=O)C1=C(C)NNC(=O)c1cccc([N+](=O)[O-])c1 [compound 59] |
| 0.1 | 62 |  |  | CC1=NN(c2ccc(C)c(C)c2)C(=O)C1=C(C)NNC(=O)c1ccc([N+](=O)[O-])cc1 [compound 60] |
| 0.029 | 91 |  |  | CC1=NN(c2ccc(Cl)c(Cl)c2)C(=O)C1=C(C)NNC(=O)c1ccccc1O [compound 61] |
| 0.19 | 21 |  |  | CC1=NN(c2ccc(Cl)c(Cl)c2)C(=O)C1=C(C)NNC(=O)c1cc2ccccc2cc1O [compound 63] |
| 0.033 | 133 |  |  | CC1=NN(c2ccc(Cl)c(Cl)c2)C(=O)C1=C(C)NNC(=O)c1ccccc1[N+](=O)[O-] [compound 66] |
| 0.023 | 87 |  |  | CC1=NN(c2ccc(C(C)(C)C)cc2)C(=O)C1=C(C)NNC(=O)c1cccc(N)c1 [compound 70] |
